Data set [1] can be described thus: Rat ocular distribution model, retina after topical drop. The class given is in vivo. The note with it: Lewis rats, 10 μL topical drop. The method, then:
(§1) Eye drops were prepared by adding compounds at a theoretical concentration of 10 mg/mL to a 2 mL microcentrifuge tube before adding a stir bar and the selected formulation that consisted of (w/v) hydroxypropyl β-cyclodextrin (Trappsol) (20%), hydroxyl propyl methylcellulose (0.5%) and EDTA (1.6 mM) in phosphate buffered saline. Tubes containing compound in eye drop formulation were heated to 60-65° C. and stirred at least 4 hours to overnight. The tubes were removed from the heat bath and centrifuged at 10,000 ref for 5 minutes to clear the solution of any residual drug not in solution. The supernatant was removed from the tubes and one 10 μL sample was removed for HPLC analysis of solubilized by HPLC using an ACE C18 column (4.5 mm×150 mm, 5 m), eluted with acetonitrile/methanol/water mixture with H3PO4, pH 3.5 (50:30:20) with a flow rate of 2.5 mL/min. The solubilized concentration of each compound was calculated by interpolation from a standard curve based on reference standards solubilized in methanol when the assay was validated.
Compounds were applied as a single 10 μL drop to rats and the aqueous humor, and the posterior segment of the eye (vitreous body and retina) were collected from each eye at the time point assigned after the eye was irrigated to remove any residual formulation present. Tissues were collected in pre-weighed collection tubes and the tissue weight was determined for each sample. An internal standard (IS) mixture containing a reference compound at a ratio of 1 μL to 4 mg tissue was added to samples, mixed and then diluted×4.25 in acetonitrile:methanol (9:1). Aqueous humour samples were vortex mixed for 10 s. The vitreous body & retina were vortex mixed 2 times each for 10 s, and further mixed for 6 min on a tabletop shaker at 750 rpm followed by final vortex mixing (10 s). All samples were centrifuged to pellet any particulate matter and the supernatant was transferred to LC vials. A 10 μL sample was then applied to the HPLC during LC/MS/MS analysis. A calibration curve for compounds (0.588-176.471 ng/mL) was prepared in rat plasma to estimate concentrations of compounds in each of the matrices analyzed using the area under curve (AUC) normalized to internal standard AUC for determining response. The assumption was made that 1 mg tissue is equivalent to 1 μL plasma. Concentrations measured in each tissue were then normalized to the amount of drug applied to account for differences in solubilized drug in each formulation. The average concentration and the standard deviation was determined based on “n”=number of eyes assessed, rather than the number of animals. […]

Data set [2] can be described thus: Solubilized concentration of compound in eye drop formulation (HPLC). The class given is physicochemical. As to conditions: eye drop formulation: 20% hydroxypropyl β-cyclodextrin, 0.5% HPMC, 1.6 mM EDTA in PBS. Here is the method:
as §1
In Table 6, the data from distribution studies performed in Lewis rats show the concentration of each compound present in the retina 0.5 hr after the administration of a 10 μL drop of each topical formation is provided. Compounds were paired and individual formulations mixed at a ratio to make a mixture that contained ~2.5 mg/mL of each compound.

Data set [3] has as its target T1, recombinant human leukotriene A4 hydrolase enzyme (Homo sapiens, UniProt P09960).
T1 construct: purchased Cayman Chemical 10007817
T1 sequence (P09960 1-611): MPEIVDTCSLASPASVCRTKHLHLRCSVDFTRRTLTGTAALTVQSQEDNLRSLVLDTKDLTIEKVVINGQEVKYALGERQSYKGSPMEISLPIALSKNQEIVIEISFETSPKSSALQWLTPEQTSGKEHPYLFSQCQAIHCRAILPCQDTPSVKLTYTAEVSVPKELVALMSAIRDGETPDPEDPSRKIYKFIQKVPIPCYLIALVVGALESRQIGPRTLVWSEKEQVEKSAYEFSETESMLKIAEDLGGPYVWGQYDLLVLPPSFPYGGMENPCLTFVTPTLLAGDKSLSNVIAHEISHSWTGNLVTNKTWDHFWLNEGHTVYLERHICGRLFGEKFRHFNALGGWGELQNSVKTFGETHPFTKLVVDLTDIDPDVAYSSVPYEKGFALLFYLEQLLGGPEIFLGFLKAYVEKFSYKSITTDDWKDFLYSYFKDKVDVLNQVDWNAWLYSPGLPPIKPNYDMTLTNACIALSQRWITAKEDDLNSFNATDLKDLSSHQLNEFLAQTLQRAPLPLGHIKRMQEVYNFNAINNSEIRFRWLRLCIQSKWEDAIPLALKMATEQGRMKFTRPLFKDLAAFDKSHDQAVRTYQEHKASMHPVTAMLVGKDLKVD
Nature of the data set: Amino-peptidase assay, PGP. The class given is biochemical. The note with it: concentration not given. The method, then:
A series of compound concentrations were pre-incubated with 50 ng of recombinant human leukotriene A4 hydrolase enzyme (Cayman Chemical, 10007817) in 50 L assay buffer (50 mM Tris-HCl, 100 mM KCl). The reaction was stimulated by adding 50 L 1 mM proline-glycine-proline (Bachem, H-7284) and incubated for 30 minutes at 37° C. The reaction was stopped with the addition of 150 μL of glacial acetic acid. The amount of free proline released from the peptide was detected through a reaction with ninhydrin. 150 μL of 25 mg/mL ninhydrin (BDH, B10132) in 60:40 acetic acid/water was added to each sample, and boiled for 30 minutes at 100° C. and once samples had cooled to room temperature, 350 μL of toluene was added to extract the ninhydrin reaction product. The amount of free proline was determined by comparing the absorbance at 520 nm to the L-proline (Sigma Aldrich, 81709) reference standard. Inhibition of free proline production was calculated based on control samples.

With `CCC(O)(CCc1ccc(Oc2nc3c(SC)cccc3s2)c(OC)c1)C(F)(F)F` (stereo not drawn) [Compound 104, 1-{3-methoxy-4-[(4-methylsulfanyl-1,3-benzothiazol-2-yl)oxy]phenyl}-3-(trifluoromethyl)pentan-3-ol], the “Concentration of compound in retina 0.5 hr after administration per mg compound applied (Avg ± SD) n = 2” value in data set [1] is on record as 3340 ± 1061 ng/mL per mg compound applied. Also, the Concentration of compound in formulation in data set [2] worked out at 2860 µg/mL. As for `CC(O)(CCc1ccc(OCc2ccc3ccccc3n2)cc1)C(F)(F)F` (stereo not drawn) [Compound 183, 1,1,1-trifluoro-2-methyl-4-[4-(quinolin-2-ylmethoxy)phenyl]butan-2-ol], the “% Inhibition aminopeptidase-PGP activity of LTA4H” value in data set [3] is listed as more than 75%.

(Values after US12686668B2, “Leukotriene synthesis inhibitors” (Naegis Pharmaceuticals Inc., priority 2019, dated 2026).)
